Tests used:
[1] = system: TNFα; assay: TNFα ELISA in LPS-activated primary mouse peritoneal macrophages; assay type: cell-based; conditions: LPS 100 ng/mL; NDX1 and NDX2 0.01, 0.1, 1 mM; NAG 0.1 and 1 mM; n=8
Experimental: (§1) • 1. Non treatment (NT) • 2. LPS 100 ng/mL • 3. LPS 100 ng/mL+NDX1 dose1* • 4. LPS 100 ng/mL+NDX1 dose2* • 5. LPS 100 ng/mL+NDX1 dose3* • 6. LPS 100 ng/mL+NDX2 dose1 • 7. LPS 100 ng/mL+NDX2 dose2 • 8. LPS 100 ng/mL+NDX2 dose3 • 9. LPS 100 ng/mL+NAG dose2 • 10. LPS 100 ng/mL+NAG dose3 (*dose 1, 2, 3 were selected as low, middle and high dose with no cytotoxicity from the cytotoxic assay)
(§2) The peritoneal macrophages were isolated from peritoneal cavity, and cultured in Dulbecco's modified Eagle's medium (DMEM, Gibco BRL, Gaithersburg, MD) supplemented with 10% fetal bovine serum (FBS) (Hyclone Laboratories, Logan, VT) and 100 IU/mL penicillin G and 100 µg/mL streptomycin, in a humidified atmosphere of 5% carbon dioxide at 37° C. Cells will grow on a 96-well plate and co-treated with 100 ng/ml LPS (Sigma-Aldrich) 0.5 hours after addition of BNAGs and NAG. Twenty-four hours later, the cell number was counted by using the WST-1 kit (Fisher Scientific). After removal of the supernatant, […] new medium was added into each cell. […] Each sample was determined at 450 nm on a microplate reader.
(§3) The amounts of IL-6 and TNFα were measured by a commercial ELISA kit (Sigma-Aldrich), following the instructions provided by the manufacturer. […] The resultant solutions were read at 450 nm on a microplate reader.

[2] = system: IL-6; assay: IL-6 ELISA in LPS-activated primary mouse peritoneal macrophages; assay type: cell-based; conditions: LPS 100 ng/mL; NDX1 and NDX2 0.01, 0.1, 1 mM; NAG 0.1 and 1 mM; n=8
Experimental: as §1, §2, §3

For `CC(=O)N[C@H]1C(O)O[C@H](CO)[C@@H](O)[C@@H]1O` (some centres unmarked) [NAG, N-acetyl glucosamine], the “reduction of TNFa production (ELISA)” value [1] was “could significantly reduce IL-6 and TNFa production” and the “reduction of IL-6 production (ELISA)” value [2] was “could significantly reduce IL-6 and TNFa production”.

From patent publication US20260191887A1, “METHODS OF TREATING INFLAMMATION” (THERAPEUTIKOS, INC., priority 2022, published 2026)
